Results: ChEMBL document CHEMBL1201862, “PubChem BioAssay data set” (2004)
Activity calls are given as the source filed them.

Assays:
[1] = A Cell Based Secondary Assay To Explore Cytotoxicity of Compounds that Sensitize Mycobacterium Tuberculosis to Beta-Lactam Antibiotics.; assay type: functional
[2] = biological target: Luciferin 4-monooxygenase (Photinus pyralis, UniProt P08659); experiment: Counter Screen for Luciferase-based Assay Positives. [Related pubchem assays: 620, 618, 411 ]
HT-1080 = experiment: cytotoxicity in HT1080 fibrosarcoma cells, cell-based, fluorescence readout (AID 620); assay type: functional; settings: Homo sapiens
Coagulation factor XII = biological target: T1, Coagulation factor XII (Homo sapiens, UniProt P00748); assay type: functional;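 further: activated factor XIIa alpha cleaving a fluorogenic AMC peptide substrate; inhibitor potency from loss of enzyme activity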
T1 sequence (P00748 whole entry): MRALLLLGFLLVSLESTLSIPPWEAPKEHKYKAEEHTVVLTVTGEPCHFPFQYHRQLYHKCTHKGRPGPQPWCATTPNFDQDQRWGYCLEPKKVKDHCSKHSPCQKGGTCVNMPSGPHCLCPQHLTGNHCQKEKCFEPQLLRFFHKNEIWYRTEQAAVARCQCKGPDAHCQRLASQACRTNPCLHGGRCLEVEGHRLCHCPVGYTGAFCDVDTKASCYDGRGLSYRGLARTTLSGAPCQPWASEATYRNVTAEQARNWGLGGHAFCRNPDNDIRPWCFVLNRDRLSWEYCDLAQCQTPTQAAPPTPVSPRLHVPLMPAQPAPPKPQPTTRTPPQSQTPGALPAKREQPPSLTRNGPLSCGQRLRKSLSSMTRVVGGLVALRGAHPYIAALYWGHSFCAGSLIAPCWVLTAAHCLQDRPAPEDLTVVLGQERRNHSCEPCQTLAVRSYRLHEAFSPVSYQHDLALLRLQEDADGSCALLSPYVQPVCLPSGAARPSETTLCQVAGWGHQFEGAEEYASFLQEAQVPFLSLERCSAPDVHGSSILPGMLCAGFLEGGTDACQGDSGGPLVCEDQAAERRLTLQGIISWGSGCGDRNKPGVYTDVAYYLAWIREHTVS

[3] = inhibitors of firefly luciferase expression or activity, dose response, H4 neuroglioma cells, luminescence (AID 1990); assay type: functional, cell-based
[4] = Luminescence Cell-Based Dose Response HTS to Identify Inhibitors of 5'UTR Stem-Loop Driven Prion Protein mRNA Translation in H4 Neuroglioblastoma Cells. [Related pubchem assays: 1827 (Project Summary), 1813 (Primary HTS)]; assay type: functional
[5] = inhibitors of SNCA 5'UTR-driven reporter translation, confirmation, H4 neuroglioma cells, luminescence (AID 1988); assay type: functional, cell-based
[6] = cytotoxicity in HEK-293T cells, dose response, cytotoxicity control for BCR NF-kB inhibitor project, luminescence, B-cell screen hits (AID 489021); assay type: functional, cell-based;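 further: HEK-293T cells carrying an NF-kB luciferase reporter; cells exposed to compound for about 14 hours before viability readout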
[7] = biological target: Voltage-dependent T-type calcium channel subunit alpha-1H (Homo sapiens, UniProt O95180); assay type: functional;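 further: channel activity triggered by adding a high calcium stimulation buffer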
Sequence of Voltage-dependent T-type calcium channel subunit alpha-1H (O95180 whole entry): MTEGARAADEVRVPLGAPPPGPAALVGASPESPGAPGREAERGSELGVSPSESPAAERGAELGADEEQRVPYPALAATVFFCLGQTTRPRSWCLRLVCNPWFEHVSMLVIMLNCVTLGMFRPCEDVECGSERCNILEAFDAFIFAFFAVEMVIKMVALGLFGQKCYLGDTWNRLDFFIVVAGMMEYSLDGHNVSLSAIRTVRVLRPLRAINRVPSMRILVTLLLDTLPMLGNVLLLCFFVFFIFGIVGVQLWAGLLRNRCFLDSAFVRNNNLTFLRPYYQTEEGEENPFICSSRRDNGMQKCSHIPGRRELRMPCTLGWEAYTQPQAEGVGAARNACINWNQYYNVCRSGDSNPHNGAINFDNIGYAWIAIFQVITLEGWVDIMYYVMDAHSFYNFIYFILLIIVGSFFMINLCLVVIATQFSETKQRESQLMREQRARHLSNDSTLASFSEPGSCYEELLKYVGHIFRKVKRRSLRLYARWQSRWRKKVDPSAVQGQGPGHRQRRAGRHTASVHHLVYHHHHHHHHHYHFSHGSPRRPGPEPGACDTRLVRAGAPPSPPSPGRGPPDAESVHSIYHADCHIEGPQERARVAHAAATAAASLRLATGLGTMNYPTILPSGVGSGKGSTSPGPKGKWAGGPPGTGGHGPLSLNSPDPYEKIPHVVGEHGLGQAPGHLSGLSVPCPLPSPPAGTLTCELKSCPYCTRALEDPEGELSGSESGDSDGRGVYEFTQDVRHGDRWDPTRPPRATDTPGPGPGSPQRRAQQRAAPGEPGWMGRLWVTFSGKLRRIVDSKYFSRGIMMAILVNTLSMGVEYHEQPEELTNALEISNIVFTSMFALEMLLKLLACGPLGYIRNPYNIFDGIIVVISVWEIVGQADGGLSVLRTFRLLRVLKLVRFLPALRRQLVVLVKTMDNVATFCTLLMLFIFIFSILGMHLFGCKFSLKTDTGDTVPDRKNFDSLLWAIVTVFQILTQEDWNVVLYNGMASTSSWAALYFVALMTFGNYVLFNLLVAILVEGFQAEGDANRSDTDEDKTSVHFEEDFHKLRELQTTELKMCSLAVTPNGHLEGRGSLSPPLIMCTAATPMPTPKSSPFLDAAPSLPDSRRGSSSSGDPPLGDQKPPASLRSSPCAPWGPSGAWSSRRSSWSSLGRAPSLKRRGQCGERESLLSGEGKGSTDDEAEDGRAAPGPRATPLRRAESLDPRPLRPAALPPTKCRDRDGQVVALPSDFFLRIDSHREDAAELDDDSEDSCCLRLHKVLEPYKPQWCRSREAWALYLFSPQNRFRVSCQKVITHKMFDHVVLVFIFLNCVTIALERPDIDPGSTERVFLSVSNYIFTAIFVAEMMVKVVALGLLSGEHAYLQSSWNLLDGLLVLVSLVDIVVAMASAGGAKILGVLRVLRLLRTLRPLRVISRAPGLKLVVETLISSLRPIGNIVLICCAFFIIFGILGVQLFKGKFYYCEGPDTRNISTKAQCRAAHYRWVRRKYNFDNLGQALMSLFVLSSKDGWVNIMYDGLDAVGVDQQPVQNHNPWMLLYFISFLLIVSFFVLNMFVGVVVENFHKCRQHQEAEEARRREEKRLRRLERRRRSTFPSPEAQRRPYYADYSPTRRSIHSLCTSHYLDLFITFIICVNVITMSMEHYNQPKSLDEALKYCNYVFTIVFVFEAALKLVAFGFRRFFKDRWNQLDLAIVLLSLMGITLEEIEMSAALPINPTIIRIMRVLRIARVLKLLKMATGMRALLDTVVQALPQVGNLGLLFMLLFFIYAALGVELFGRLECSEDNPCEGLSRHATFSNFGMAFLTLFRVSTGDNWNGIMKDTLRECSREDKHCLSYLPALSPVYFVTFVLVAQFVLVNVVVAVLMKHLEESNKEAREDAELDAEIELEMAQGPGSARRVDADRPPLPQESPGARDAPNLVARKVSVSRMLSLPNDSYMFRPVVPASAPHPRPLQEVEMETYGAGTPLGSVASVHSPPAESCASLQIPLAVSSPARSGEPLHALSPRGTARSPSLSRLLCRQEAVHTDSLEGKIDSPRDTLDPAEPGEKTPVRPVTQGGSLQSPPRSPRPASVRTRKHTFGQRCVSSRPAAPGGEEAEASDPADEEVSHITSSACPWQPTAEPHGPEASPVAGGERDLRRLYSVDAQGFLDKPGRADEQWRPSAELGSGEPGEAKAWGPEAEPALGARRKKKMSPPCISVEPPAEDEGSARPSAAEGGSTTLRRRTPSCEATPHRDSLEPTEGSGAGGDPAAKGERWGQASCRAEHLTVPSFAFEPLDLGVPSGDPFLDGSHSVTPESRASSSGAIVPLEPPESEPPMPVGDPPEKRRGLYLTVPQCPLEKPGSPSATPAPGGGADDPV

[8] = biological target: T2, Epstein-Barr nuclear antigen 1 (Epstein-Barr virus (strain B95-8) (HHV-4) (Human herpesvirus 4), UniProt P03211); experiment: EBNA-1 inhibitors, dose response, biochemical, fluorescence polarization, 1536-well (AID 2381); parameters: species or system human gammaherpesvirus 4;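 further: fluorescence polarization of a Cy5 DNA probe bound by EBNA-1 protein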
T2 sequence (P03211 whole entry): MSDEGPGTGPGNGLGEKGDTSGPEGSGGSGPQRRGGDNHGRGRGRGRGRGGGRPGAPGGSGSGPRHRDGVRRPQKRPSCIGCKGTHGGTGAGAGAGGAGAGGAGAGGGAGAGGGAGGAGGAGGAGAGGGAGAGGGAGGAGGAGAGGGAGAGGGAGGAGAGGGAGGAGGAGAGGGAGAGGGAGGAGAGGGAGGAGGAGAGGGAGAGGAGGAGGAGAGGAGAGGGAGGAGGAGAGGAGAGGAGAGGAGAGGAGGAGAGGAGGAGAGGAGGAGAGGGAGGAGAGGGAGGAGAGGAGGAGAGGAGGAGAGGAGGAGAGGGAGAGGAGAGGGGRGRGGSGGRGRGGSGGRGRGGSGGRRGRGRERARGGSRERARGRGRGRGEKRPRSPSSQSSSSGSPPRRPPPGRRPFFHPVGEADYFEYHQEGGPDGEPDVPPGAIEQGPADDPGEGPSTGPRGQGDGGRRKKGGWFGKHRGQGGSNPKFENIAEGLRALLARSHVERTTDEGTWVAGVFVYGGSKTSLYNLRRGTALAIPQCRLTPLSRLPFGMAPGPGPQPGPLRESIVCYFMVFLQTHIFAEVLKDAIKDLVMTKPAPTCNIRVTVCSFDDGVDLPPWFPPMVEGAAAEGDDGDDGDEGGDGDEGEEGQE

[9] = biological target: T3, Lytic switch protein BZLF1 (Epstein-Barr virus (strain B95-8) (HHV-4) (Human herpesvirus 4), UniProt P03206); experiment: EBV ZTA inhibitors, dose response, counter-screen for EBNA-1 inhibitor project, biochemical, fluorescence polarization, Epstein-Barr virus, 1536-well (AID 2377); parameters: species or system human gammaherpesvirus 4;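 further: fluorescence polarization of Cy5-labelled ZRE DNA probe bound by purified Zta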
T3 sequence (P03206 whole entry): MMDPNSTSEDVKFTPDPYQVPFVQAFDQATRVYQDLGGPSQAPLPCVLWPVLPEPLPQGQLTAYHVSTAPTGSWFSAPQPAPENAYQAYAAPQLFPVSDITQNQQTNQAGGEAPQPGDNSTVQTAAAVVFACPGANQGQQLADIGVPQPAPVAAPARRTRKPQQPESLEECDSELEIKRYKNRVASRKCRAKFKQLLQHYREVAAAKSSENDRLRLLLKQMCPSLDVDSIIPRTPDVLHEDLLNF

[10] = biological target: G-protein coupled receptor 35 (Homo sapiens, UniProt Q9HC97); experiment: GPR35 antagonists blocking zaprinast-driven arrestin recruitment, primary screen, imaging, U2OS, beta-arrestin-GFP, zaprinast agonist (AID 2058); assay type: functional;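 further: antagonist potency meaning inhibition of agonist-induced arrestin redistribution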
Sequence of G-protein coupled receptor 35 (Q9HC97 whole entry): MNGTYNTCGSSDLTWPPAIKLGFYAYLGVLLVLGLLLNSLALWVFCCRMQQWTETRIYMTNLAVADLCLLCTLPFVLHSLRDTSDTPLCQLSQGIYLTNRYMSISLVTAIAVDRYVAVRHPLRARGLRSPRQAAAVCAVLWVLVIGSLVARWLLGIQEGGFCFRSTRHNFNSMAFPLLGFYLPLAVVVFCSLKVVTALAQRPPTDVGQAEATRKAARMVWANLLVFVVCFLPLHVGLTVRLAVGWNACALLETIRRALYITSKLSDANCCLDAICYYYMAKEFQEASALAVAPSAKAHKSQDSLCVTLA

[11] = biological target: Eukaryotic translation initiation factor 4H (Homo sapiens, UniProt Q15056); experiment: human eIF4H binding inhibitors, primary screen, translation initiation inhibitor project, biochemical, uHTS, fluorescence polarization (AID 2012)
Aminopeptidase N = biological target: T4, Aminopeptidase N (Plasmodium falciparum FcB1/Columbia, UniProt O96935); experiment: P. falciparum M1AAP inhibitors, biochemical, fluorogenic H-Leu-NHMec substrate, 1536-well (AID 1445); parameters: species or system Plasmodium falciparum 3D7, 3D7
T4 sequence (O96935 whole entry): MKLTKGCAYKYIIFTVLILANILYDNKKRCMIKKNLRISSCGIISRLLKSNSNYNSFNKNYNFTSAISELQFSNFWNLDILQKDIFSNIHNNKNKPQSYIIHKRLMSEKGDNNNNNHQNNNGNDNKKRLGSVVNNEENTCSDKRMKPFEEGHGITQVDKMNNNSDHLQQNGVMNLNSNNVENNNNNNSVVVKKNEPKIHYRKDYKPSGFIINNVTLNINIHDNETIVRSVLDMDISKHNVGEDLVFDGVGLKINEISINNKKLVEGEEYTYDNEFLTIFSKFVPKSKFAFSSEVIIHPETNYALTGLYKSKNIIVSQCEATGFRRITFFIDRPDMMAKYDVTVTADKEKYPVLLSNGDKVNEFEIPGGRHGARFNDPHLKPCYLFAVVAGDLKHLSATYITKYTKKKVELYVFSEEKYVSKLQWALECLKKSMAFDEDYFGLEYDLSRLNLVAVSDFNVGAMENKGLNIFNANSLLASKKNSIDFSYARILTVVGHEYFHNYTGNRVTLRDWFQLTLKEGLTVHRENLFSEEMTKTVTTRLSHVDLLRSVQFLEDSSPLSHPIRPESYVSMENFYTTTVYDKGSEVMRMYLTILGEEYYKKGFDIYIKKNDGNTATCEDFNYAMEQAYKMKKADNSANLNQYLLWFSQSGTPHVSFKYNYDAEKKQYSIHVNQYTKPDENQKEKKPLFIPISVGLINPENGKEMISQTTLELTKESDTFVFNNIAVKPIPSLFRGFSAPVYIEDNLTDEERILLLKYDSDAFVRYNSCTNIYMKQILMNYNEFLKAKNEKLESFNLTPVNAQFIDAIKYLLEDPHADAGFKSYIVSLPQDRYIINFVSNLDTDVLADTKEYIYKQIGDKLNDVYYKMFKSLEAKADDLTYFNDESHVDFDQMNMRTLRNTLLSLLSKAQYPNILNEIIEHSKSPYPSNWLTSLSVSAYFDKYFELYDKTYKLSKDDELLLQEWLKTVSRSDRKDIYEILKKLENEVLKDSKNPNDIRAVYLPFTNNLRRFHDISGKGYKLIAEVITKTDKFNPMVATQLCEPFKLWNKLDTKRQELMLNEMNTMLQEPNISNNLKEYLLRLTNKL

[12] = biological target: Polyadenylate-binding protein 1 (Homo sapiens, UniProt P11940); experiment: PABP poly(A) RNA binding inhibitors, primary screen, biochemical, fluorescence polarization, uHTS (AID 2014)
Sequence of Polyadenylate-binding protein 1 (P11940 whole entry, the tested form may be a part): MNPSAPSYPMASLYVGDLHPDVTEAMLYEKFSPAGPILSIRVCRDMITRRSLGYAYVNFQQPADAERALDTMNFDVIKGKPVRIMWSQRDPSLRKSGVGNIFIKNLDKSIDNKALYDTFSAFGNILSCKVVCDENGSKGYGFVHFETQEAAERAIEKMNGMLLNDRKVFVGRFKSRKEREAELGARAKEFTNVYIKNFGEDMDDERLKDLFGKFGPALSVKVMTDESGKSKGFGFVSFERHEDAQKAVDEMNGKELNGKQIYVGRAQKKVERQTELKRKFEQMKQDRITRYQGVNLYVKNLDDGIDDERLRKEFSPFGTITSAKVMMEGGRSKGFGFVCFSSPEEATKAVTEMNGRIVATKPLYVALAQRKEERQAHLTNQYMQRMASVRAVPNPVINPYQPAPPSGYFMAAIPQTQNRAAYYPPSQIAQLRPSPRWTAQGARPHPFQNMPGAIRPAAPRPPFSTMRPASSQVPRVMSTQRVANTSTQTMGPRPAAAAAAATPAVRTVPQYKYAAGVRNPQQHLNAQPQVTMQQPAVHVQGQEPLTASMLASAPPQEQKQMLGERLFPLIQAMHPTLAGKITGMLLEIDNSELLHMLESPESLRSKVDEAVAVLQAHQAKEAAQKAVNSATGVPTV

[13] = biological target: T5, RNA-binding protein pos-1 (Caenorhabditis elegans, UniProt G5EF15); experiment: inhibitors of POS-1/mex-3 RNA binding, dose response, biochemical, fluorescence polarization (AID 1964);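 further: purified POS-1 fused to maltose binding protein made in E. coli; potency of compounds blocking POS-1 binding to fluorescent RNA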
T5 sequence (G5EF15 whole entry): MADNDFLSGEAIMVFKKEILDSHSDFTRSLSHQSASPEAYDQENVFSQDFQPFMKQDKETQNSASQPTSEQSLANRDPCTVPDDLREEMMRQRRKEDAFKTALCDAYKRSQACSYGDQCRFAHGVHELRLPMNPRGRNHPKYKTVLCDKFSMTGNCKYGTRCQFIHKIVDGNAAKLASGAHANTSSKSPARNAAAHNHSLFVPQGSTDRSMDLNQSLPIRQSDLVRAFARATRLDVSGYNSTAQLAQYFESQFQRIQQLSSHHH

[14] = biological target: T6, Zinc finger protein mex-5 (Caenorhabditis elegans, UniProt Q9XUB2); experiment: MEX-5/TCR-2 RNA interaction inhibitors, dose response, biochemical, C. elegans, fluorescence polarization (AID 1960)
T6 sequence (Q9XUB2 whole entry): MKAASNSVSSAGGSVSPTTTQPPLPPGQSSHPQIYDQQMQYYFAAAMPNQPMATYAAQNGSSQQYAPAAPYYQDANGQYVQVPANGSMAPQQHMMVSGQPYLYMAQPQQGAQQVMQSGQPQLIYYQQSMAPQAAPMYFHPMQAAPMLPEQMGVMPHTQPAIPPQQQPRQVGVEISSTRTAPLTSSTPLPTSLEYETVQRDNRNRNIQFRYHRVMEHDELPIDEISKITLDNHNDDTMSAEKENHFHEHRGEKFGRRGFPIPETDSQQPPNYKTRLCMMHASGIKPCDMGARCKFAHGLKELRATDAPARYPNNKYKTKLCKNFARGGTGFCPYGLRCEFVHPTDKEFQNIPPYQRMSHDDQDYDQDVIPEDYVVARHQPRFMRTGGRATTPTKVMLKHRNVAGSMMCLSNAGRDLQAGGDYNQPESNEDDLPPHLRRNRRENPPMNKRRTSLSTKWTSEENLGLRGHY

Cytochrome P450 2C19 = Cytochrome P450 2C19 (Homo sapiens, UniProt P33261); experiment: Cytochrome panel assay with activity outcomes. Panel member name: p450-cyp2c19 Compounds with AC50 equal or less than 10 uM are considered active; assay type: functional
Sequence of Cytochrome P450 2C19 (P33261 whole entry): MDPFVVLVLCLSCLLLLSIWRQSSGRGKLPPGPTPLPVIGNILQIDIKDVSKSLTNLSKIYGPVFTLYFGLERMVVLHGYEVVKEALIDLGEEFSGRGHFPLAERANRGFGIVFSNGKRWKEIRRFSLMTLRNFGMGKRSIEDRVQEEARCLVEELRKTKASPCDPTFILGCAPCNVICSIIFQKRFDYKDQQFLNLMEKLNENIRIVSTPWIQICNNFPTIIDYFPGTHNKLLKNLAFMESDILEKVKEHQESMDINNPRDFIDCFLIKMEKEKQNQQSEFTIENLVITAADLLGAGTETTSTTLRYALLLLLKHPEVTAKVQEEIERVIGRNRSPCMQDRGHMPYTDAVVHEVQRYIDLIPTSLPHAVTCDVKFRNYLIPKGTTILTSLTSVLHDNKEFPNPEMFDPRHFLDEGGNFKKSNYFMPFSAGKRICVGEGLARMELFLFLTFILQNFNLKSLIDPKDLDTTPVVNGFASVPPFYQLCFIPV

[15] = Luminescence Cell-Based Dose Retest to Confirm Inhibitors of Cancer Stem Cells. [Related pubchem assays (depositor defined):AID2717, AID2721]; assay type: functional; settings: Homo sapiens
[16] = biological target: Neurotensin receptor type 1 (Homo sapiens, UniProt P30989); assay type: functional;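 further: Image-based confirmatory dose-response assay measuring agonist activity at NTR1; NTR1-expressing U2OS osteosarcoma cells imaged for beta-arrestin GFP spot formation; agonist potency where compounds increase beta-arrestin recruitment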
Sequence of Neurotensin receptor type 1 (P30989 whole entry): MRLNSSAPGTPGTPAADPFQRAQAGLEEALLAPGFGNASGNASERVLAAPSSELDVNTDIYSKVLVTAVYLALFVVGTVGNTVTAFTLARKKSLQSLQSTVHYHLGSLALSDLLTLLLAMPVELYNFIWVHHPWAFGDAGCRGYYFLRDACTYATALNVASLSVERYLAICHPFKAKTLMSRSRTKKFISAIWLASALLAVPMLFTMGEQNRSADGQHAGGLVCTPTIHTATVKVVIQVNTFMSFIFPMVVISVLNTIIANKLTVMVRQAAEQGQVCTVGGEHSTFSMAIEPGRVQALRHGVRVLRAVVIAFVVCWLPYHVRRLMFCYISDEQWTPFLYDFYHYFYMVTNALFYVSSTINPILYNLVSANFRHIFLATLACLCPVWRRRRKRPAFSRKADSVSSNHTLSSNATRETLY

HeLa = experiment: HeLa cell cytotoxicity, dose response, cytotoxicity control, 24 h, cherry-picked samples (AID 504726); assay type: functional, cell-based; settings: Homo sapiens;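 further: potency for cytotoxicity as loss of luminescence signal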

Sequence of Luciferin 4-monooxygenase (P08659 whole entry): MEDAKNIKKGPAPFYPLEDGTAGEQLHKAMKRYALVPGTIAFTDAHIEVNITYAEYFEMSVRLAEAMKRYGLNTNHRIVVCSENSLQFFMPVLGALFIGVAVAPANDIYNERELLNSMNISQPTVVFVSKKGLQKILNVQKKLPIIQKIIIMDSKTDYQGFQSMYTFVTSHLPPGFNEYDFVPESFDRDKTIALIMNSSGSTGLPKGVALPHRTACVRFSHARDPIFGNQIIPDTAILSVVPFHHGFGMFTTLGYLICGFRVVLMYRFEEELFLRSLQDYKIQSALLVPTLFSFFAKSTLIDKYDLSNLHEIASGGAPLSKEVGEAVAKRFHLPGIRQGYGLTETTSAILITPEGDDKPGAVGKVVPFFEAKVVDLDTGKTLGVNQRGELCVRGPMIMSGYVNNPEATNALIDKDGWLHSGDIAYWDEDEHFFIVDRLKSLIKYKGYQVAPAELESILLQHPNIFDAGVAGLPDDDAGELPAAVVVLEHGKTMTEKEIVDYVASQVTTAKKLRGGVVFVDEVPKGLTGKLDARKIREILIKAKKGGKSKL

CCOc1ccc(-c2cnc3n2CCC3)cc1
CC50 [1]: > 40 µM (active)

COc1ccc(O)c(C(=O)CC(=O)c2ccccc2)c1
EC50 [2]: 5.71 µM (active) | EC50 (HT-1080): > 50 µM (not active)

O=C1NC(=O)N(Cc2ccc(F)cc2)C(=O)/C1=C/Nc1ccc(C(=O)O)cc1
IC50 (Coagulation factor XII): > 50 µM (inactive)

Cc1nc2cc(-c3cccc(F)c3)nn2c(C)c1CCC(=O)N1CCC2(CC1)OCCO2
EC50 [3]: 10.1 µM (active) | EC50 [4]: 16.6 µM (active) | EC50 [5]: 15.4 µM (active) | IC50 [6]: > 80 µM (inactive)

c1ccc(-c2noc(CSc3nnnn3-c3ccccc3)n2)cc1
EC50 [7]: 8.32 µM (active)

O=C(Nc1cccc(NC(=O)c2cccs2)c1)c1ccc(Br)cc1
IC50 [8]: 6.65 µM (active) | IC50 [9]: > 111 µM (not active)

CCOC(=O)C1CCN(c2ncnc3c2cnn3-c2ccc(Cl)cc2)CC1
IC50 [6]: > 80 µM (inactive)

CCOC(=O)CSc1snnc1-c1ccccc1
IC50 (Coagulation factor XII): > 50 µM (inactive)

O=C(Nc1ccc(N2CCCC2)c(Cl)c1)c1ccco1
EC50 [2]: < 0.2 µM (active) | EC50 (HT-1080): > 50 µM (not active)

CC(C)CSC1=NSC2=NC(=O)/C(=C\c3coc4ccccc4c3=O)C(=N)N12
IC50 [10]: 23.3 µM (inactive)

CCN(CC)Cc1c(O)ccc2c(C)c(CC(=O)OC)c(=O)oc12
IC50 [11]: > 100 µM (inactive) | IC50 (Aminopeptidase N): 40.4 µM (active) | IC50 [12]: > 100 µM (inactive)

CCCSc1nnc(NC(=O)Nc2ccccc2)s1
IC50 [11]: > 100 µM (inactive) | EC50 [13]: > 300 µM (not active) | EC50 [14]: > 300 µM (not active) | IC50 [12]: > 100 µM (inactive)

Cc1ccc(/C(O)=C/C2=NCC(C)NC2=O)cc1 (centres undefined)
EC50 [2]: > 100 µM (not active) | EC50 (HT-1080): > 50 µM (not active) | AC50 (Cytochrome P450 2C19): inconclusive

CCC(=O)Nc1ccc(C(=O)Nc2ccc3c(c2)C(=O)N(CC2CCCO2)C3=O)cc1 (centres undefined)
IC50 [8]: 6.54 µM (active) | IC50 [9]: > 111 µM (not active)

CCN1C(=O)c2cccc3c(S(=O)(=O)N4CCC(C)CC4)ccc1c23
IC50 [6]: > 80 µM (inactive)

CCOC(=O)c1cnn(-c2ccccc2)c1-n1cccc1C(=O)C(=O)Nc1ccc(F)cc1
EC50 [7]: 6.1 µM (active)

Cc1cc(C)c2c(c1)/C(=C/C(=O)c1ccc(Br)s1)C(=O)N2
AC50 [15]: 2.22 µM (active) | EC50 [16]: 6.24 µM (active)

Cc1ccc(NC(=O)c2ccc(Cl)c(S(=O)(=O)N3CCc4ccccc43)c2)nc1
AC50 (HeLa): 342 µM (active)

COc1cc2c3nnc(-c4ccc(F)cc4)c-3cn(Cc3cccc(F)c3)c2cc1OC
EC50 [16]: 3.59 µM (active)
